# Results published in patent publication US9777002B2, “Inhibitors of the renal outer medullary potassium channel” (Merck Sharp & Dohme Corp., priority 2012, dated 2017).
# Assays:
# hROMK (hKir1.1) = biological target: T1, hROMK (hKir1.1) (Homo sapiens, UniProt P48048); assay: Thallium Flux Assay; assay type: cell-based; details: HEK293 cells stably expressing hROMK (hKir1.1)
# T1 construct: expressed in transfected cells
# T1 sequence (P48048 1-391): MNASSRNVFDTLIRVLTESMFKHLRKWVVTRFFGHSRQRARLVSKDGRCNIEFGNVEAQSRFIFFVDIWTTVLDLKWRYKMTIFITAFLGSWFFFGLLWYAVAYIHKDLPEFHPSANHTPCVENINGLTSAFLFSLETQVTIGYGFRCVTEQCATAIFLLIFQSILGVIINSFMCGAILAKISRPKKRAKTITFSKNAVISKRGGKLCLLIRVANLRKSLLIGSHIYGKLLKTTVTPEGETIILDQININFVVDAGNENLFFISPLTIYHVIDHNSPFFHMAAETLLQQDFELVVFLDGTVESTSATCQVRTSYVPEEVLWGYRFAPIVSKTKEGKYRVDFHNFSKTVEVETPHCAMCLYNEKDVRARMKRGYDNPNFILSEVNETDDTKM
# Outline: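 HEK293 cells stably expressing hROMK were loaded with FluxOR dye for 90 min, then incubated with compound in probenecid assay buffer plus 0.3 mM ouabain, pH 7.4, for 30 min at 23-25 °C. Flux was triggered with 3 mM thallium/0.3 mM potassium (final) and read on FLIPR-Tetra for ~10 min. IC50 was calculated against the signal blocked by 3 μM control inhibitor.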
# Kir1.1 (ROMK1) = biological target: T2, Kir1.1 (ROMK1) (Homo sapiens, UniProt P48048); assay: Electrophysiology Assay (whole cell voltage clamp, IonWorks Quattro); assay type: cell-based; details: Chinese hamster ovary cells stably expressing Kir1.1; block during voltage step to 0 mV
# T2 construct: expressed in transfected cells; expression induced with sodium butyrate
# T2 sequence (P48048 1-391): T1 sequence (P48048 1-391)
# Experimental: Block of Kir1.1 (ROMK1) currents was examined by whole cell voltage clamp (Hamill et. al. Pfluegers Archives 391:85-100 (1981)) using the IonWorks Quattro automated electrophysiology platform (Molecular Devices, Sunnyvale, Calif.). Chinese hamster ovary cells stably expressing Kir1.1 channels were maintained in T-75 flasks in cell culture media in a humidified 10% CO2 incubator at 37° C. Prior to an experiment, Kir1.1 expression was induced by overnight incubation with 1 mM sodium butyrate. On the day of the experiment, cells were dissociated with 2.5 mL of Versene (Invitrogen 15040-066) for approximately 6 min at 37° C. and suspended in 10 mL of bath solution containing (in mM): 150 NaCl, 10 KCl, 2.7 CaCl2, 0.5 MgCl2, 5 HEPES, pH 7.4. After centrifugation, the cell pellet was resuspended in approximately 4.0 mL of bath solution and placed in the IonWorks instrument. The intracellular solution consisted of (in mM): 80 K gluconate, 40 KCl, 20 KF, 3.2 MgCl2, 3 EGTA, 5 Hepes, pH 7.4. Electrical access to the cytoplasm was achieved by perforation in 0.13 mg/mL amphotericin B for 4 min. Amphotericin B (Sigma A-4888) was prepared as a 40 mg/mL solution in DMSO. Voltage protocols and current recordings were performed using the IonWorks HT software/hardware system. Currents were sampled at 1 kHz. No correction for liquid junction potentials was used. The test pulse, consisting of a 100 ms step to 0 mV from a holding potential of −70 mV, followed by a 100 ms voltage ramp from −70 mV to +70 mV, was applied before and after a 6 min compound incubation period. Test compounds were prepared by diluting DMSO stock solutions into the bath solution at 3× the final concentration and placed in the instrument in 96-well polypropylene plates. Current amplitudes were measured using the IonWorks software. To assess compound potency, the fractional block during the voltage step to 0 mV was calculated in Microsoft Excel (Microsoft, Redmond, Calif.), and dose-response curves were fitted with Igor Pro 4.0 (WaveMetrics, Lake Oswego, Oreg.). Normally, a control compound is included to support that the assay is giving consistent results compared to previous measurements, although the control is not required to obtain the results for the test compounds.
Structure (SMILES),IC50 (hROMK (hKir1.1)) [nM],IC50 (Kir1.1 (ROMK1)) [nM]
"Cc1c(CCN2CCC(NC(=O)c3ccc(C#N)cc3S(C)(=O)=O)CC2)ccc2c1COC2=O [Example 29, 4-Cyano-N-(1-(2-(4-methyl-1-oxo-1,3-dihydroisobenzofuran-5-yl)ethyl)piperidin-4-yl)-2-(methylsulfonyl)benzamide]",1230,240
"Cc1c([C@@H](O)CN2CCC(C)(NC(=O)c3ccc(C#N)cn3)CC2)ccc2c1COC2=O [Example 40, (R)-5-Cyano-N-(1-(2-hydroxy-2-(4-methyl-1-oxo-1,3-dihydroisobenzofuran-5-yl)ethyl)-4-methylpiperidin-4-yl)picolinamide]",1320,630
"Cc1c(CCN2CCC(NC(=O)c3ccc4c(c3)COC4=O)CC2)ccc2c1COC2=O [Example 1, N-(1-(2-(4-Methyl-1-oxo-1,3-dihydroisobenzofuran-5-yl)ethyl)piperidin-4-yl)-1-oxo-1,3-dihydroisobenzofuran-5-carboxamide]",10,40
"Cc1c(CCN2CCC(NC(=O)c3ccc(F)c(C#N)c3)CC2)ccc2c1COC2=O [Example 12, 3-Cyano-4-fluoro-N-(1-(2-(4-methyl-1-oxo-1,3-dihydroisobenzofuran-5-yl)ethyl)piperidin-4-yl)benzamide]",1000,120
